The values that follow come from patent US20230355605A1, “DRUG FOR ENHANCING FIBRINOLYTIC SYSTEM, AND USE THEREFOR” (priority 2020, published 2023).

In series [1] the test system is cynomolgus monkey model of saphenous arterial thrombus. Put plainly: Cynomolgus monkey model of saphenous arterial thrombus (PIT model). The format is in vivo. Conditions: oral administration to monkeys. The procedure:
The thrombus formation inhibitory effect of the present compound was evaluated using a cynomolgus monkey model of saphenous arterial thrombus (PIT model) .
Before the procedure, the present compound suspended in a 0.5% CMC-Na aqueous solution was orally administered to test groups of cynomolgus monkeys at dosages of 0.1, 0.3, 1, and 3 mg/kg. […] A light irradiation probe was placed on a saphenous artery of each cynomolgus monkey to cause thrombus formation by applying green light of 540 nm for 20 minutes at the time of intravenously administering rose bengal (20 mg/kg). A decrease in blood flow due to this thrombus formation was measured with a pulse Doppler blood flowmeter, and the thrombus formation inhibitory effect of the present compound was evaluated by measuring the occlusion time on the first day and the cumulative occlusion time.

The next series relates to rats. Put plainly: 4-week repeated oral dose toxicity study in rats. The format is in vivo. The note with it: rats; study details of the similar compound not given.
Series [2] concerns mouse model of bleomycin-induced pulmonary fibrosis. Briefly: Mouse model of bleomycin-induced pulmonary fibrosis. Type of series: in vivo. The procedure: The improvement effect of the present compound on pulmonary fibrosis (remodeling after lung damage) was evaluated using a mouse model of bleomycin-induced pulmonary fibrosis. […] Because of similarity of histopathological changes to pulmonary fibrosis in humans, this mouse model is widely used for the evaluation of the drug efficacy.
To a fibrosis mouse model (fibrosis model group) given a single dose of bleomycin (1.2 mg/mL), the present compound (0.75 mg/kg/day) was orally administered for 21 days (present compound administration group, n = 9), and biochemical analysis of the lungs and measurement of clinical conditions of the lungs were performed on day 22. For comparison, instead of the present compound, the solvent used to dissolve the present compound was administered to a fibrosis model group in the same manner (vehicle group, n = 10), and biochemical analysis and measurement of clinical conditions of the lungs were performed. As a positive control group, a dexamethasone administration group (0.25 mg/kg administration, n = 9) was used. The biochemical analysis was performed using lung hydroxyproline values as an index. The clinical conditions of the lungs were evaluated by performing Masson’s trichrome staining and calculating Ashcroft scores according to a report of Ashcroft et al. (Ashcroft T et al., J Clin Pathol, 1988; 41:467). The clinical conditions were confirmed by comparing a normal mouse group (normal group, n = 10) with the vehicle group (n = 10), and the improvement effect of the present compound on pulmonary fibrosis was evaluated by comparing the vehicle group (n = 10) with the present compound administration group (n = 9). Differences between the mean values of the groups were tested by the Bonferroni selected pairs test using Prism 4 (GraphPad Software).
Table 1 and FIG. 3(A) and FIG. 3(B) show the results of comparisons of the lung hydroxyproline values and the Ashcroft scores in the groups. The mean values of the groups are expressed as mean±SD, and examination was performed at a 5% significance level.

A further series deals with CML patients. Conditions: according to the NCCN guidelines; cited from earlier work.
Series [3] concerns COVID-19 patients with moderate to severe lung damage. Conditions: 13 COVID-19 patients, inhaled; cited from earlier work.
The mark [4] stands for this setting: day 22, present compound 0.75 mg/kg/day oral 21 days, dexamethasone 0.25 mg/kg, mean±SD.

Consider `O=C(Nc1ccc(Cl)cc1C(=O)O)c1cccc(-c2ccccc2)c1` [similar compound, 2-([biphenyl-3-ylcarbonyl]amino)-5-chlorobenzoic acid, reference compound], for which the minimum effective dosage in series [1] is 0.3 mg/kg. The no-observed-adverse-effect level in the series with rats turned out to be 20 mg/kg/day.

For the molecule `C[C@@H]1C[C@H]2[C@@H]3CCC4=CC(=O)C=C[C@]4(C)[C@@]3(F)[C@@H](O)C[C@]2(C)[C@@]1(O)C(=O)CO` [Dexamethazone, dexamethasone, reference compound], in series [2] (5% significance level), the “Ashcroft score compared with vehicle group” value is “significantly lower” and the “lung hydroxyproline value compared with vehicle group” value is on record as “no significant difference”. In series [2] (setting [4]), the Ashcroft score was 2.3±0.1 and the Lung hydroxyproline value was 71.0±6.7 µg/left lung.

With `Cc1ccc(NC(=O)c2ccc(CN3CCN(C)CC3)cc2)cc1Nc1nccc(-c2cccnc2)n1` [imatinib], in the series with CML patients, the “patients who could maintain DMR for more than 2 years after 3 years of treatment” value was “about 5 % of all CML cases”.

B1: plasminogen: inhaled plasminogen given to COVID-19 patients in the clinical study by Wu et al. (protein, UniProt P00747 20-810, looked up)
Plasminogen: EPLDDYVNTQGASLFSVTKKQLGAGSIEECAAKCEEDEEFTCRAFQYHSKEQQCVIMAENRKSSIIIRMRDVVLFEKKVYLSECKTGNGKNYRGTMSKTKNGITCQKWSSTSPHRPRFSPATHPSEGLEENYCRNPDNDPQGPWCYTTDPEKRYDYCDILECEEECMHCSGENYDGKISKTMSGLECQAWDSQSPHAHGYIPSKFPNKNLKKNYCRNPDRELRPWCFTTDPNKRWELCDIPRCTTPPPSSGPTYQCLKGTGENYRGNVAVTVSGHTCQHWSAQTPHTHNRTPENFPCKNLDENYCRNPDGKRAPWCHTTNSQVRWEYCKIPSCDSSPVSTEQLAPTAPPELTPVVQDCYHGDGQSYRGTSSTTTTGKKCQSWSSMTPHRHQKTPENYPNAGLTMNYCRNPDADKGPWCFTTDPSVRWEYCNLKKCSGTEASVVAPPPVVLLPDVETPSEEDCMFGNGKGYRGKRATTVTGTPCQDWAAQEPHRHSIFTPETNPRAGLEKNYCRNPDGDVGGPWCYTTNPRKLYDYCDVPQCAAPSFDCGKPQVEPKKCPGRVVGGCVAHPHSWPWQVSLRTRFGMHFCGGTLISPEWVLTAAHCLEKSPRPSSYKVILGAHQEVNLEPHVQEIEVSRLFLEPTRKDIALLKLSSPAVITDKVIPACLPSPNYVVADRTECFITGWGETQGTFGAGLLKEAQLPVIENKVCNRYEFLNGRVQSTELCAGHLAGGTDSCQGDSGGPLVCFEKDKYILQGVTSWGLGCARPNKPGVYVRVSRFVTWIEGVMRNN
For the molecule B1, the lung damage entry in series [3] was “rapid improvement in lung damage”.

B2: plasmin: as printed for NPL 27; probably the inhaled plasminogen of b10 (protein, UniProt P00747 20-810, looked up)
Plasminogen: B1 Plasminogen
Regarding B2, in series [3], the lung damage entry was “improved”.
